# Measured values as given in patent publication US20230146455A1, “TREATMENT OF INFLAMMATORY DISEASES WITH PEPTIDES AND PHARMACEUTICAL COMPOSITIONS” (Yuyu Pharma, Inc., priority 2020, published 2023).
# “And” between values parts separate entries of the source, which are not always exact repeats. Identical values can stand only once. Where a SMILES comes first, the peptide text is derived from it. [ ]: non-standard residue; d: D form. Hyp = O=C(O)[C@@H]1C[C@@H](O)CN1
# Tested on: human PBMCs
# Assay: PBMC cell counts (total, live, viability; trypan blue, Countess) with and without LPS and test articles (Example 9)
# Type: cell-based
# Description: Treatment Human PBMCs were pretreated with YY-101, YDE-011 and YDE-043 or reference compound; Xiidra® at various concentration (ranging from 1 nM to 100 uM) for 2 h before stimulation. An equal volume of 0.5% DMSO was used as a vehicle control. Then, the cells were treated with LPS at 5 ug/ml. The supernatants from treated cells were harvested at 24 h and placed in a 96 well for Luminex cytokine & chemokine profiling using a Luminex 200 multiplex assay (Luminex; R&D system, USA).
# The main study arm with triplicate wells per group in a 24-well plate: • 1. Blank • 2. PBMC: 0.5% DMSO • 3. PBMC+LPS (5 ug/ml) • 4. PBMC+YY-101 100 uM • 5. PBMC+YY-101 10 uM • 6. PBMC+YY-101 1 uM • 7. PBMC+YY-101 0.1 uM • 8. PBMC+YY-101 0.01 uM • 9. PBMC+LPS (5 ug/ml)+Xiidra®100 uM • 10. PBMC+LPS (5 ug/ml)+Xiidra® 10 uM • 11. PBMC+LPS (5 ug/ml)+Xiidra® 1 uM • 12. PBMC+LPS (5 ug/ml)+Xiidra®0.1 uM • 13. PBMC+LPS (5 ug/ml)+Xiidra®0.01 uM • 14. PBMC+LPS (5 ug/ml)+Xiidra®0.001 uM • 15. PBMC+LPS (5 ug/ml)+YY-101 100 uM • 16. PBMC+LPS (5 ug/ml)+YY-101 10 uM • 17. PBMC+LPS (5 ug/ml)+YY-101 1 uM • 18. PBMC+LPS (5 ug/ml)+YY-101 0.1 uM • 19. PBMC+LPS (5 ug/ml)+YY-101 0.01 uM • 20. PBMC+LPS (5 ug/ml)+YY-101 0.001 uM • 21. PBMC+LPS (5 ug/ml)+YDE-011 100 uM • 22. PBMC+LPS (5 ug/ml)+YDE-011 10 uM • 23. PBMC+LPS (5 ug/ml)+YDE-011 1 uM • 24. PBMC+LPS (5 ug/ml)+YDE-011 0.1 uM • 25. PBMC+LPS (5 ug/ml)+YDE-011 0.01 uM • 26. PBMC+LPS (5 ug/ml)+YDE-011 0.001 uM • 27. PBMC+LPS (5 ug/ml)+YDE-043 100 uM • 28. PBMC+LPS (5 ug/ml)+YDE-043 10 uM • 29. PBMC+LPS (5 ug/ml)+YDE-043 1 uM • 30. PBMC+LPS (5 ug/ml)+YDE-043 0.1 uM • 31. PBMC+LPS (5 ug/ml)+YDE-043 0.01 uM • 32. PBMC+LPS (5 ug/ml)+YDE-043 0.001 uM
# The number of PBMCs was measured after 24 hr of treatment. The culture both and trypan blue were diluted 1:1 and 10 ul was added to Countess cell counting chamber (Thermo fisher, USA). The number of PBMCs was measured using a Countess automated cell counter (Thermo fisher, USA).
# [1] = PBMC + LPS(5 ug/ml) + compound 0.001 uM, 24 hr
# [2] = PBMC + LPS(5 ug/ml) + compound 0.01 uM, 24 hr
# [3] = PBMC + LPS(5 ug/ml) + compound 0.1 uM, 24 hr
# [4] = PBMC + LPS(5 ug/ml) + compound 1 uM, 24 hr
# [5] = PBMC + LPS(5 ug/ml) + compound 10 uM, 24 hr
# [6] = PBMC + LPS(5 ug/ml) + compound 100 uM, 24 hr
# [7] = PBMC + LPS(5 ug/ml) + test article 0.001 uM, Mean
# [8] = PBMC + LPS(5 ug/ml) + test article 0.001 uM, single replicates
# [9] = PBMC + LPS(5 ug/ml) + test article 0.01 uM, Mean
# [10] = PBMC + LPS(5 ug/ml) + test article 0.01 uM, single replicates
# [11] = PBMC + LPS(5 ug/ml) + test article 0.1 uM, Mean
# [12] = PBMC + LPS(5 ug/ml) + test article 0.1 uM, single replicates
# [13] = PBMC + LPS(5 ug/ml) + test article 1 uM, Mean
# [14] = PBMC + LPS(5 ug/ml) + test article 1 uM, single replicates
# [15] = PBMC + LPS(5 ug/ml) + test article 10 uM, Mean
# [16] = PBMC + LPS(5 ug/ml) + test article 10 uM, single replicates
structure (smiles),measurement,setting,value
CC(C)C[C@H](NC(=O)[C@H](CCC(N)=O)NC(=O)CNC(=O)[C@@H]1C[C@@H](O)CN1)C(=O)NCC(=O)O [YDE-043] (H-[Hyp]GQLG-OH; N-terminus and C-terminus assumed),Live cell,[1],5.0 ± 0.5 10^5/ml
same,Total cell,[1],6.3 ± 0.7 10^5/ml
same,Live cell,[2],5.4 ± 0.6 10^5/ml
same,Total cell,[2],6.9 ± 0.4 10^5/ml
same,Live cell,[3],5.4 ± 0.2 10^5/ml
same,Total cell,[3],6.6 ± 0.1 10^5/ml
same,Live cell,[4],5.3 ± 0.3 10^5/ml
same,Total cell,[4],6.8 ± 0.6 10^5/ml
same,Live cell,[5],5.4 ± 0.1 10^5/ml
same,Total cell,[5],6.4 ± 0.1 10^5/ml
same,Live cell,[6],6.3 ± 0.1 10^5/ml
same,Total cell,[6],7.6 ± 0.6 10^5/ml
same,Live cell,[7],5.0 10^5/ml
same,Live cell (10^5/ml),[7],5.0 10^5/ml
same,"Live cell, Mean",[7],5.0 10^5/ml
same,Live cell,"PBMC + LPS(5 ug/ml) + test article 0.001 uM, individual replicates",4.4 10^5/ml and 6.0 10^5/ml and 4.6 10^5/ml
same,Live cell,"PBMC + LPS(5 ug/ml) + test article 0.001 uM, individual replicates (1st, 2nd, 3rd)",4.4 10^5/ml and 6.0 10^5/ml and 4.6 10^5/ml
same,Live cell,[8],4.4 10^5/ml and 6.0 10^5/ml and 4.6 10^5/ml
same,Live cell (10^5/ml),[8],4.4 10^5/ml and 6.0 10^5/ml and 4.6 10^5/ml
same,Live cell,"PBMC + LPS(5 ug/ml) + test article 0.001 uM, single replicates (1st, 2nd, 3rd)",4.4 10^5/ml and 6.0 10^5/ml and 4.6 10^5/ml
same,Live cell,[9],5.4 10^5/ml
same,Live cell (10^5/ml),[9],5.4 10^5/ml
same,"Live cell, Mean",[9],5.4 10^5/ml
same,Live cell,"PBMC + LPS(5 ug/ml) + test article 0.01 uM, individual replicates",4.5 10^5/ml and 6.6 10^5/ml and 5.0 10^5/ml
same,Live cell,"PBMC + LPS(5 ug/ml) + test article 0.01 uM, individual replicates (1st, 2nd, 3rd)",4.5 10^5/ml and 6.6 10^5/ml and 5.0 10^5/ml
same,Live cell,[10],4.5 10^5/ml and 6.6 10^5/ml and 5.0 10^5/ml
same,Live cell (10^5/ml),[10],4.5 10^5/ml and 6.6 10^5/ml and 5.0 10^5/ml
same,Live cell,"PBMC + LPS(5 ug/ml) + test article 0.01 uM, single replicates (1st, 2nd, 3rd)",4.5 10^5/ml and 6.6 10^5/ml and 5.0 10^5/ml
same,Live cell,[11],5.4 10^5/ml
same,Live cell (10^5/ml),[11],5.4 10^5/ml
same,"Live cell, Mean",[11],5.4 10^5/ml
same,Live cell,"PBMC + LPS(5 ug/ml) + test article 0.1 uM, individual replicates",5.0 10^5/ml and 5.6 10^5/ml (2×)
same,Live cell,"PBMC + LPS(5 ug/ml) + test article 0.1 uM, individual replicates (1st, 2nd, 3rd)",5.0 10^5/ml and 5.6 10^5/ml (2×)
same,Live cell,[12],5.0 10^5/ml and 5.6 10^5/ml (2×)
same,Live cell (10^5/ml),[12],5.0 10^5/ml and 5.6 10^5/ml (2×)
same,Live cell,"PBMC + LPS(5 ug/ml) + test article 0.1 uM, single replicates (1st, 2nd, 3rd)",5.0 10^5/ml and 5.6 10^5/ml (2×)
same,Live cell,[13],5.3 10^5/ml
same,Live cell (10^5/ml),[13],5.3 10^5/ml
same,"Live cell, Mean",[13],5.3 10^5/ml
same,Live cell,"PBMC + LPS(5 ug/ml) + test article 1 uM, individual replicates",5.8 10^5/ml and 4.8 10^5/ml and 5.3 10^5/ml
same,Live cell,"PBMC + LPS(5 ug/ml) + test article 1 uM, individual replicates (1st, 2nd, 3rd)",5.8 10^5/ml and 4.8 10^5/ml and 5.3 10^5/ml
same,Live cell,[14],5.8 10^5/ml and 4.8 10^5/ml and 5.3 10^5/ml
same,Live cell (10^5/ml),[14],5.8 10^5/ml and 4.8 10^5/ml and 5.3 10^5/ml
same,Live cell,"PBMC + LPS(5 ug/ml) + test article 1 uM, single replicates (1st, 2nd, 3rd)",5.8 10^5/ml and 4.8 10^5/ml and 5.3 10^5/ml
same,Live cell,[15],5.4 10^5/ml
same,Live cell (10^5/ml),[15],5.4 10^5/ml
same,"Live cell, Mean",[15],5.4 10^5/ml
same,Live cell,"PBMC + LPS(5 ug/ml) + test article 10 uM, individual replicates",5.2 10^5/ml and 5.4 10^5/ml and 5.6 10^5/ml
same,Live cell,"PBMC + LPS(5 ug/ml) + test article 10 uM, individual replicates (1st, 2nd, 3rd)",5.2 10^5/ml and 5.4 10^5/ml and 5.6 10^5/ml
same,Live cell,[16],5.2 10^5/ml and 5.4 10^5/ml and 5.6 10^5/ml
same,Live cell (10^5/ml),[16],5.2 10^5/ml and 5.4 10^5/ml and 5.6 10^5/ml
